Data: US9976141B2, “Compositions and methods for inhibiting gene expression of Hif2alpha” (Arrowhead Madison Inc., priority 2015, dated 2018)
Strand notation (5' to 3'): a small letter for the sugar, then the base; units joined by * are phosphorothioate-linked, units joined directly phosphodiester-linked; [ ] holds rarer units or linkages, { } end groups; capitals alone tell only the bases. d = 2'-deoxy (DNA); m = 2'-O-methyl; f = 2'-fluoro

System: human EPAS1 (Hif2α) cDNA in psiCHECK2 (Renilla luciferase/EPAS1 fusion mRNA) in Hep3B cells
Assay: Efficacy screen of Hif2α RNAi triggers in vitro, dual-luciferase reporter assay (1 nM and 0.1 nM)
Assay type: cell-based
Conditions: Hep3B cells co-transfected with EPAS1-psiCHECK2, Renilla luciferase normalized to firefly luciferase
Procedure, shortened: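 Knockdown read by dual-luciferase assay: Renilla signal from the Renilla/EPAS1 fusion transcript divided by firefly luciferase expressed from the same plasmid. Triggers (modified canonical siRNAs, 1 nM or 0.1 nM) were co-transfected with 25 ng reporter plasmid per well into human hepatocellular carcinoma Hep3B cells.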

Substance	Relative Rluc-Hif2α (0.1 nM RNAi trigger)	Relative Rluc-Hif2α (1 nM RNAi trigger)
2373 (sense fGmAfGmCfUmAfUmGfUmGfAmCfUmCfGmGfAmUfAdT; antisense dTfAmUfCmCfGmAfGmUfCmAfCmAfUmAfGmCfUmCdT*dT; siRNA) [compound 2373]	0.369 ± 0.082	0.162 ± 0.032
2396 (sense fUmUfAmAfCmCfCmUfAmCfCmUfGmUfCmAfAmCfAdT; antisense dTfGmUfUmGfAmCfAmGfGmUfAmGfGmGfUmUfAmAdT*dT; siRNA) [compound 2396]	1.321 ± 0.070	0.939 ± 0.299
2242 (sense fGmGfGmUfUmUfCmAfUmUfGmCfCmGfUmGfGmUfAdT; antisense dTfAmCfCmAfCmGfGmCfAmAfUmGfAmAfAmCfCmCdT*dT; siRNA) [compound 2242]	0.411 ± 0.019	0.222 ± 0.064
2282 (sense fCmGfCmAfAmAfGmCfAmUfGmGfGmGfGmCfUmAfAdT; antisense dTfUmAfGmCfCmCfCmCfAmUfGmCfUmUfUmGfCmGdT*dT; siRNA) [compound 2282]	1.209 ± 0.132	0.824 ± 0.155
2408 (sense fUmAfUmUfAmUfAmUfUmGfUmCfGmAfAmUfUmCfAdT; antisense dTfGmAfAmUfUmCfGmAfCmAfAmUfAmUfAmAfUmAdT*dT; siRNA) [compound 2408]	0.730 ± 0.045	0.282 ± 0.004
2279 (sense fAmGfUmAfCmCfGmGfAmUfGmCfUmCfGmCfAmAfAdT; antisense dTfUmUfGmCfGmAfGmCfAmUfCmCfGmGfUmAfCmUdT*dT; siRNA) [compound 2279]	0.506 ± 0.086	0.280 ± 0.042
2293 (sense fUmGfCmUfCmCfAmCfGmCfCmCfAmAfUmAfGmCfAdT; antisense dTfGmCfUmAfUmUfGmGfGmCfGmUfGmGfAmGfCmAdT*dT; siRNA) [compound 2293]	1.010 ± 0.045	0.925 ± 0.126
2245 (sense fAmCfAmCfAmGfGmUfGmGfAmGfCmUfAmAfCmAfAdT; antisense dTfUmGfUmUfAmGfCmUfCmCfAmCfCmUfGmUfGmUdT*dT; siRNA) [compound 2245]	0.761 ± 0.039	0.727 ± 0.066
2296 (sense fCmAfUmCfUmUfUmGfGmAfUmAfAmCfGmAfCmCfAdT; antisense dTfGmGfUmCfGmUfUmAfUmCfCmAfAmAfGmAfUmGdT*dT; siRNA) [compound 2296]	0.411 ± 0.079	0.213 ± 0.028
2360 (sense fGmGfGmAfGmCfAmCfUmGfCmGfCmGfCmUfAmUfAdT; antisense dTfAmUfAmGfCmGfCmGfCmAfGmUfGmCfUmCfCmCdT*dT; siRNA) [compound 2360]	1.102 ± 0.119	0.962 ± 0.167
2244 (sense fGmGfGmAfCmUfUmAfCmAfCmAfGmGfUmGfGmAfAdT; antisense dTfUmCfCmAfCmCfUmGfUmGfUmAfAmGfUmCfCmCdT*dT; siRNA) [compound 2244]	0.760 ± 0.050	0.915 ± 0.115
2275 (sense fUmGfCmGfCmUfAmGfAmCfUmCfCmGfAmGfAmAfAdT; antisense dTfUmUfCmUfCmGfGmAfGmUfCmUfAmGfCmGfCmAdT*dT; siRNA) [compound 2275]	0.515 ± 0.264	0.464 ± 0.048
2290 (sense fAmGfUmAfAmCfUmUfCmCfUmAfUmUfCmAfCmCfAdT; antisense dTfGmGfUmGfAmAfUmAfGmGfAmAfGmUfUmAfCmUdT*dT; siRNA) [compound 2290]	0.698 ± 0.155	0.353 ± 0.036
2319 (sense fCmUfUmUfGmAfUmGfCmCfGmGfAmCfAmAfGmCfAdT; antisense dTfGmCfUmUfGmUfCmCfGmGfCmAfUmCfAmAfAmGdT*dT; siRNA) [compound 2319]	0.454 ± 0.101	0.234 ± 0.055
2326 (sense fCmUfAmCfAmGfCmCfUmGfUmCfGmUfCmAfGmCfAdT; antisense dTfGmCfUmGfAmCfGmAfCmAfGmGfCmUfGmUfAmGdT*dT; siRNA) [compound 2326]	0.660 ± 0.114	0.546 ± 0.083
2295 (sense fAmCfGmCfCmCfAmAfUmAfGmCfCmCfUmGfAmAfAdT; antisense dTfUmUfCmAfGmGfGmCfUmAfUmUfGmGfGmCfGmUdT*dT; siRNA) [compound 2295]	1.047 ± 0.184	0.863 ± 0.122

Substance	Relative Rluc-Hif2α (0.1 nM RNAi trigger)	Relative Rluc-Hif2α (1 nM RNAi trigger)
2348 (sense fCmCfAmCfGmGfCmCfUmGfUmAfCmGfGmAfCmAfAdT; antisense dTfUmGfUmCfCmGfUmAfCmAfGmGfCmCfGmUfGmGdT*dT; siRNA) [compound 2348]	0.840 ± 0.270	0.454 ± 0.096
2268 (sense fUmAfUmGfAmAfUmUfCmUfAmCfCmAfUmGfCmGfAdT; antisense dTfCmGfCmAfUmGfGmUfAmGfAmAfUmUfCmAfUmAdT*dT; siRNA) [compound 2268]	0.409 ± 0.023	0.210 ± 0.037
2398 (sense fCmCfCmUfAmCfCmUfGmUfCmAfAmCfGmUfAmAfAdT; antisense dTfUmUfAmCfGmUfUmGfAmCfAmGfGmUfAmGfGmGdT*dT; siRNA) [compound 2398]	1.047 ± 0.047	0.534 ± 0.043
2331 (sense fGmGfUmGfAmAfCmGfUmGfCmCfCmGfUmGfCmUfAdT; antisense dTfAmGfCmAfCmGfGmGfCmAfCmGfUmUfCmAfCmCdT*dT; siRNA) [compound 2331]	1.002 ± 0.321	0.783 ± 0.080
2298 (sense fAmUfGmCfAmGfUmAfCmCfCmAfGmAfCmGfGmAfAdT; antisense dTfUmCfCmGfUmCfUmGfGmGfUmAfCmUfGmCfAmUdT*dT; siRNA) [compound 2298]	0.729 ± 0.092	0.695 ± 0.037
2291 (sense fUmCfGmGfGmAfAmUfCmAfGmAfAmCfUmUfCmGfAdT; antisense dTfCmGfAmAfGmUfUmCfUmGfAmUfUmCfCmCfGmAdT*dT; siRNA) [compound 2291]	0.911 ± 0.092	0.434 ± 0.046
2236 (sense fCmAfGmGfUmGfCmUfCmGfGmCfGmUfCmUfGmAfAdT; antisense dTfUmCfAmGfAmCfGmCfCmGfAmGfCmAfCmCfUmGdT*dT; siRNA) [compound 2236]	0.693 ± 0.071	0.761 ± 0.042
2389 (sense fAmAfCmUfAmUfUmUfAmGfUmAfAmGfCmCfCmGfAdT; antisense dTfCmGfGmGfCmUfUmAfCmUfAmAfAmUfAmGfUmUdT*dT; siRNA) [compound 2389]	1.085 ± 0.307	0.820 ± 0.184
2252 (sense fGmAfGmAfUmUfCmGfUmGfAmGfAmAfCmCfUmGfAdT; antisense dTfCmAfGmGfUmUfCmUfCmAfCmGfAmAfUmCfUmCdT*dT; siRNA) [compound 2252]	0.696 ± 0.096	0.592 ± 0.061
2369 (sense fGmCfGmGfGmGfAmAfGmUfGmCfUmCfUmAfAmCfAdT; antisense dTfGmUfUmAfGmAfGmCfAmCfUmUfCmCfCmCfGmCdT*dT; siRNA) [compound 2369]	0.464 ± 0.032	0.338 ± 0.055
2384 (sense fGmUfAmAfGmAfGmGfGmAfCmGfAmCfAmCfCmUfAdT; antisense dTfAmGfGmUfGmUfCmGfUmCfCmCfUmCfUmUfAmCdT*dT; siRNA) [compound 2384]	0.533 ± 0.067	0.439 ± 0.101
2367 (sense fGmCfAmCfGmUfUmGfUmGfGmGfGmUfCmGfGmGfAdT; antisense dTfCmCfCmGfAmCfCmCfCmAfCmAfAmCfGmUfGmCdT*dT; siRNA) [compound 2367]	0.665 ± 0.064	0.376 ± 0.039
2303 (sense fGmAfUmGfCmCfGmGfAmAfGmCfAmAfAmGfCmAfAdT; antisense dTfUmGfCmUfUmUfGmCfUmUfCmCfGmGfCmAfUmCdT*dT; siRNA) [compound 2303]	0.414 ± 0.002	0.294 ± 0.034
2357 (sense fGmGfUmGfUmGfAmCfAmAfUmCfCmGfAmGfCmAfAdT; antisense dTfUmGfCmUfCmGfGmAfUmUfGmUfCmAfCmAfCmCdT*dT; siRNA) [compound 2357]	0.737 ± 0.082	0.435 ± 0.062
2358 (sense fAmCfAmAfUmCfCmGfAmGfCmAfGmUfGmGfAmGfAdT; antisense dTfCmUfCmCfAmCfUmGfCmUfCmGfGmAfUmUfGmUdT*dT; siRNA) [compound 2358]	0.647 ± 0.113	0.731 ± 0.123
2305 (sense fGmCfCmGfGmAfAmGfCmAfAmAfGmCfAmUfCmCfAdT; antisense dTfGmGfAmUfGmCfUmUfUmGfCmUfUmCfCmGfGmCdT*dT; siRNA) [compound 2305]	0.961 ± 0.120	0.992 ± 0.217
